{
  "source": "patent US20250009844A1",
  "about": "“MATURATION OF MUCOSAL DEFENSE AND GUT/LUNG FUNCTION IN THE PRETERM INFANT” (Novozymes A/S, priority 2017, published 2025)",
  "format_in_all_cases": "in vivo",
  "key": {"[1]": {"tested_on": "microbiota of the intestine", "assay": "Therapeutic high fat diet model in diet-induced obese mice, 16S microbial analyses (Example 2)", "text": "The overall design of the study is shown in FIG. 1, lower panel, “Therapeutic study”. Mice and diets. The experiment elucidates the effect of hBD-2 and HD5 on the microbiota in diet-induced obese mice. A run-in period of 13 weeks where mice were fed a very HFD (60% energy from fat) preceded the intervention. Only mice meeting the criteria of a minimum of 12 gram weight gain (approximately 50% of initial bodyweight) during the run-in period were included in the final analyses. […] They were exposed to all experimental tests, but excluded from the analyses.\nTreatment regimen. Before the intervention all mice were MR scanned. Cages of mice were allocated to experimental groups based on their fat mass. All subsequent measures were paired with data from the same mouse before the intervention. A LFD (low fat diet) reference group was running in parallel. As controls for the intervention 2 additional groups were included: a) very HFD and b) LFD. Experimental mice stayed on the very HFD during the intervention. The mice were on the experimental diet for 10 weeks. They were co-housed throughout the experiment, 4 mice per cage, 3 cages per group. All tests ran over 3 days, 1 cage per group per day.\nMicrobial analyses were carried out to study the microbiota of the intestine. Longitudinal 16S characterization was conducted on 4 paired samples from 60 mice, 240 samples in total. Each mouse was sampled prior to diet change, 1 week post diet change, 4 weeks post diet change and at termination, thus ensuring a thorough characterization of the faecal microbiota as a result of defensin treatment."}, "[2]": {"tested_on": "BALB/c mice", "assay": "Therapeutic intervention in murine house dust mite/Freund's complete adjuvant driven model of allergic asthma (Example 6)", "conditions": "for Increase of airway resistance (AHR): vs HDM challenged vehicle", "experimental": "Treatment regime: Female 7-10 weeks old BALB/c mice were randomly allocated into 6 study groups one day prior to study start and subcutaneously (SC) sensitized to house dust mite (100 μg HDM in 200 μL saline plus Freund's complete adjuvant in 0.9% saline). Mice were then intranasally (IN) challenged with HDM on day 14 (HDM 25 μg in 50 μL of saline). Dexamethasone was administered orally (1 mg/kg BID; 50 μL phosphate buffered saline (PBS)) on day 14. hBD-2 was administered IN or orally (1.7 mg/kg TID IN; 0.4 mg/kg TID IN; 0.4 mg/kg TID orally, 50 μL phosphate buffered saline) on day 14. The initial dose was administered 60 minutes prior to challenge, and the subsequent two doses approximately 6 hours apart (FIG. 3).\nAirway inflammation: At 48 hours post challenge, bronchoalveolar lavage was performed washing the lungs with 3 volumes of cold PBS (0.4; 0.3 and 0.3 mL, total 1 mL). Total and differential leucocyte cell counts were determined on an automated haematological analyser Sysmex XT-2000iV.\nData are represented as airway resistance at […] methacholine and as dose responsive curves. Lung sampling for cytokine analysis: After completion of every BAL, lungs were removed from the thorax, snap frozen in liquid nitrogen and stored frozen at −80 degrees Celsius until analysis of cytokine concentration of IL-1β, TNF-α, IL-6, IL-10 and IFNγ by ELISA."}, "[3]": {"tested_on": "bacteria localization at the surface of the intestinal mucosa", "assay": "Localization of bacteria by FISH with mucin immunostaining, lysis zone (Example 14)", "conditions": "orally administered; compared with mice on a low fat or western diet", "experimental": "Immunostaining of mucins and localization of bacteria by FISH Mucus immunostaining was paired with fluorescent in situ hybridization (FISH), as previously described in order to analyze bacteria localization at the surface of the intestinal mucosa. Briefly, colonic tissues (proximal colon, 2nd cm from the cecum) without fecal material were placed in methanol-Carnoy's fixative solution (60% methanol, 30% chloroform, 10% glacial acetic acid) for a minimum of 3 hours at room temperature. Tissues were then washed in methanol 2×30 min, ethanol 2×15 min, ethanol/xylene (1:1), 15 min and xylene 2×15 min, followed by embedding in Paraffin with a vertical orientation. Five μm sections were performed and dewax by preheating at 60° C. for 10 min, followed by xylene 60° C. for 10 min, xylene for 10 min and 99.5% ethanol for 10 minutes. Hybridization step was performed at 50° C. overnight with EUB338 probe (5′-GCTGCCTCCCGTAGGAGT-3′, with a 5′ labeling using Alexa 647) diluted to a final concentration of 10 μg/mL in hybridization buffer (20 mM Tris-HCl, pH 7.4, 0.9 M NaCl, 0.1% SDS, 20% formamide). After washing 10 min in wash buffer (20 mM Tris-HCl, pH 7.4, 0.9 M NaCl) and 3×10 min in PBS, PAP pen (Sigma-Aldrich) was used to mark around the section and block solution (5% fetal bovine serum in PBS) was added for 30 min at 4° C. […]"}, "[4]": {"conditions": "hBD-2 intranasal, both doses, dexamethasone 1 mg/kg BID orally"}},
  "note": "No end group written: not given here.",
  "data": [
    {"substance": "human beta defensin 2 (GIGDPVTCLKSGAICHPVFCPRRYKQIGTCGLPGTKCCKKP; ends and bridges not checked; cysteine pairing not given here; listed as Homo sapiens) [hBD-2]", "values": [
      {"measurement": "Relative abundance of Bifidobacteriaceae", "setting": "[1]; colon, hBD-2 p<0.04", "value": "dramatically and statistically significant increased the relative abundance of Bifidobacteriaceae"},
      {"measurement": "Abundance of Alloprevotella", "setting": "[1]; colon, therapeutic intervention, HD5 p<0.02", "value": "no influence on Alloprevotella abundance"},
      {"measurement": "Relative abundance of Bifidobacteriaceae", "setting": "[1]; small intestine, hBD-2 p<0.0001", "value": "dramatically and statistically significant increased the relative abundance of Bifidobacteriaceae"},
      {"measurement": "Total cell count in BALF", "setting": "[2]; 48 hours post challenge, hBD-2 intranasal, both doses (0.4 mg/kg/day TID and 1.7 mg/kg/day TID), dexamethasone 1 mg/kg BID orally", "value": "significantly inhibited total, neutrophil and macrophage cell counts"},
      {"measurement": "Eosinophil count in BALF", "setting": "[2]; [4]", "value": "trend towards lowering of eosinophils"},
      {"measurement": "Macrophage count in BALF", "setting": "[2]; [4]", "value": "significantly inhibited total, neutrophil and macrophage cell counts"},
      {"measurement": "Neutrophil count in BALF", "setting": "[2]; [4]", "value": "significantly inhibited total, neutrophil and macrophage cell counts"},
      {"measurement": "TNF-α level in lung tissue homogenate", "setting": "[2]; intranasal hBD-2", "value": "not significantly different from the control"},
      {"measurement": "Decrease of pulmonary compliance", "setting": "[2]; intranasal hBD-2 TID on day 14", "value": "effectively inhibited"},
      {"measurement": "Increase of airway resistance (AHR)", "setting": "[2]; intranasal hBD-2 TID on day 14", "value": "effectively inhibited increase of airway resistance"},
      {"measurement": "Decrease of pulmonary compliance", "setting": "[2]; oral hBD-2 0.4 mg/kg TID on day 14", "value": "effectively inhibited"},
      {"measurement": "Increase of airway resistance (AHR)", "setting": "[2]; oral on day 14: hBD-2 0.4 mg/kg TID, dexamethasone 1 mg/kg BID", "value": "effectively inhibited increase of airway resistance"},
      {"measurement": "TNF-α level in lung tissue homogenate", "setting": "[2]; oral: hBD-2 0.4 mg/kg TID, dexamethasone 1 mg/kg BID, vs HDM/vehicle control", "value": "significantly reduced TNF-α"},
      {"measurement": "Distance from the intestinal lining to bacterial population (lysis zone)", "setting": "[3]", "value": "profound effect on the distance"}
    ]}
  ]
}
